# Test results as given in publication PMC11873939, “Target Identification with Live-Cell Photoaffinity Labeling and Mechanism of Action Elucidation of ARN23765, a Highly Potent CFTR Corrector” (Journal of Medicinal Chemistry, 2025).
# Columns and labels:
# F508del/R1070W-CFTR [1] = biological target: T1, F508del/R1070W-CFTR (Homo sapiens, UniProt P13569, DEL508-508/R1070W); assay: Protein maturation assay (WB, band C/(C+B)) in transfected HEK293 cells; assay type: cell-based; settings: HEK293, 24 h; ARN23765 10 nM, VX-661 3 μM
# T1 construct: CFTR identification in pull-down studies and analysis of full-length CFTR in protein maturation assays; expressed in transfected cells; host or cells: HEK293 (transient)
# Experimental: HEK293 cells were plated in 24-wells at around 80% of confluence and transfected with constructs coding for F508del-CFTR or mutants using JetPEI reagent (101000053, Polyplus Technology) following the manufacturer’s instructions. After 24 h, the correctors were added for a further 24 h. […] For binding site analysis experiments, the cells were kept either at 37 °C (Figure S8) or moved to 30 °C (Figure 9) during incubation with the selected correctors. VX-445 and corrector 3151 were mixed together as a control for maximal protein correction. DMSO (0.2%) was added to nontreated controls. After treatment, cells were lysed in RIPA buffer [50 mM tris-HCl pH 8, 150 mM NaCl, 1% NP40, 0.5% sodium deoxycolate, 0.1% SDS, 2.0 mM EDTA] and lysates were analyzed with WB, as described in the supplementary methods of the Supporting Information.
# F508del/R1070W-CFTR [2] = biological target: T1, F508del/R1070W-CFTR; assay: FLIPR membrane potential assay of CFTR channel activity in transfected HEK293 cells; assay type: cell-based; settings: HEK293, 24 h; ARN23765 10 nM, VX-661 3 μM
# Experimental: HS-YFP-based assay for CFTR activity
# Twenty-four hours after seeding on 96-well plates, CFBE41o- cells stably over-expressing F508del-CFTR and the HS-YFP were treated with test compounds at different concentrations in the 3 nM-10 µM range.1 Cells treated with vehicle alone (DMSO) and with ARN23765, respectively, served as negative and positive controls. The following day, cells were washed with PBS containing (in mM) 137 NaCl, 2.7 KCl, 8.1 Na2HPO4, 1.5 KH2PO4, 1.0 CaCl2, and 0.5 MgCl2. Cells were then incubated for 25 min with […] of PBS plus forskolin (20 µM) and VX-770 (1 µM) to maximally stimulate F508del-CFTR. Cells were then transferred to a microplate reader (FluoStar Galaxy; BMG Labtech, Offenburg, Germany) for CFTR activity determination. The plate reader was equipped with high-quality excitation (HQ500/20X: 500 ± 10 nm) and emission (HQ535/30M: 535 ± 15 nm) filters for YFP (Chroma Technology). Each assay comprised a continuous 14 s fluorescence reading, 2 s before and 12 s after injection of […] of an iodide-containing solution (PBS with Cl- replaced by I-; final I- concentration […]). Data were normalized to the initial background-subtracted fluorescence. […]
# Cell lysates or eluates from pull-down experiments were resolved by SDS-PAGE on 4-8 % tris-acetate gels (EA0378BOX, Life technologies) and were transferred into PVDF membranes (Immobilion-E IEVH00005, Millipore). […] Images were acquired with Chemidoc MP (BIO-RAD laboratories) and quantified with Image J software.
# CFTR Channel function analysis by fluorometric imaging plate reader functional (FLIPR) assay FLIPR assay was performed as previously described.3 Briefly, HEK293 cells were seeded in 96-well plates (black, flat bottom, Corning) and transfected with mutated CFTR constructs. […]
# µM) for 24 h at 30 °C or 37 °C. […] The plate was then read in a fluorescence plate reader (SpectraMax i3, Molecular Devices) at 37 °C (excitation: 530 nm, emission: 560 nm). […] CFTR-mediated depolarization was detected as an increase in fluorescence. […] The peak changes in fluorescence were normalized to fluorescence immediately […]
# T1 sequence (P13569 with tags, fused parts or gaps DEL508-508/R1070W): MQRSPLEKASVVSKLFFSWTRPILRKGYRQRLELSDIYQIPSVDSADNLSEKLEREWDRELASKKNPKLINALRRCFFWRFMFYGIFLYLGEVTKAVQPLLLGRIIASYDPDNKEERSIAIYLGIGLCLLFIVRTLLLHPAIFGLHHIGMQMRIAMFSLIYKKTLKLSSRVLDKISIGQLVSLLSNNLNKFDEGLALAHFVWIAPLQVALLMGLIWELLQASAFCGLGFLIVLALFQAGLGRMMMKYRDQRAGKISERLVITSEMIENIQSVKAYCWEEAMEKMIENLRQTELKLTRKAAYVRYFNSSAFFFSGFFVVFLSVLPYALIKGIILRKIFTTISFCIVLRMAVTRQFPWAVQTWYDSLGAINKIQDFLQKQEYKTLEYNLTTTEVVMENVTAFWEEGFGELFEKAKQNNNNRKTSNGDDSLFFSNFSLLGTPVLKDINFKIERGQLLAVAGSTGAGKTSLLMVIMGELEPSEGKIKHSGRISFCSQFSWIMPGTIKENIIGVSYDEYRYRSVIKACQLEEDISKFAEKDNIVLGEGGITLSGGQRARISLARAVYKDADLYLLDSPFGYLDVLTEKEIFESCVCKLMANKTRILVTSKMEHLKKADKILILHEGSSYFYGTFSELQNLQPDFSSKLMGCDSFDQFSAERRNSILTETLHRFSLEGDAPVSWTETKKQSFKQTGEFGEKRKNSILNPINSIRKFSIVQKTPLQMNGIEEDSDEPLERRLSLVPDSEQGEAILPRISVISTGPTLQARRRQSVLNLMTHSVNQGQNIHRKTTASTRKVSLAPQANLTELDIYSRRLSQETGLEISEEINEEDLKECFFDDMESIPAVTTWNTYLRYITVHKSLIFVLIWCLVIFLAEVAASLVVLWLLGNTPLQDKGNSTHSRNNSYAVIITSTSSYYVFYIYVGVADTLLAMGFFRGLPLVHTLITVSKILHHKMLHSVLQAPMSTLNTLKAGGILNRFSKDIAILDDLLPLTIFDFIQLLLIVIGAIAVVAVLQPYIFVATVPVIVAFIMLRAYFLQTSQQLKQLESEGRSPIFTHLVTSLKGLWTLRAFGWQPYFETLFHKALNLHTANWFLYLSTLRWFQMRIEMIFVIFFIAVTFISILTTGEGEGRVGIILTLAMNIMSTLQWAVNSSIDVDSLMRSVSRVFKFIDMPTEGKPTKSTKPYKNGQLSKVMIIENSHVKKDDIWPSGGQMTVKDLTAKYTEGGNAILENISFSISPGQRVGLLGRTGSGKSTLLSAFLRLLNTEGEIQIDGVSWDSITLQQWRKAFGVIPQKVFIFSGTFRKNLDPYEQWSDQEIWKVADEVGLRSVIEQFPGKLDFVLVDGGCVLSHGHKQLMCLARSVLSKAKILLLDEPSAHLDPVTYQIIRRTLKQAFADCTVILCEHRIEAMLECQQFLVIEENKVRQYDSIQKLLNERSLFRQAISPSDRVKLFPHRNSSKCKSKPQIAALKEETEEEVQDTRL
smiles,measurement,setting,value
"CC(C)(CO)c1cc2cc(NC(=O)C3(c4ccc5c(c4)OC(F)(F)O5)CC3)c(F)cc2n1C[C@@H](O)CO [VX-661, tezacaftor, reference compound]",F508del/R1070W protein maturation,F508del/R1070W-CFTR [1],further enhanced
same,F508del/R1070W channel activity (FLIPR),F508del/R1070W-CFTR [2],further enhanced
